Read-outs that look alike come from different tables or passages of the source.
Tests used:
hCES1A [1] = molecular target: T1, hCES1A (Homo sapiens, UniProt P23141); experiment: Inhibition assay on hCES1A (bioluminogenic substrate NLMe); type: biochemical; conditions: for IC50: mean ± SD, n = 3; for hCES1A IC50 Fold Increase: ratio of IC50 at 3 min to IC50 at 33 min
T1 sequence (P23141 18-567): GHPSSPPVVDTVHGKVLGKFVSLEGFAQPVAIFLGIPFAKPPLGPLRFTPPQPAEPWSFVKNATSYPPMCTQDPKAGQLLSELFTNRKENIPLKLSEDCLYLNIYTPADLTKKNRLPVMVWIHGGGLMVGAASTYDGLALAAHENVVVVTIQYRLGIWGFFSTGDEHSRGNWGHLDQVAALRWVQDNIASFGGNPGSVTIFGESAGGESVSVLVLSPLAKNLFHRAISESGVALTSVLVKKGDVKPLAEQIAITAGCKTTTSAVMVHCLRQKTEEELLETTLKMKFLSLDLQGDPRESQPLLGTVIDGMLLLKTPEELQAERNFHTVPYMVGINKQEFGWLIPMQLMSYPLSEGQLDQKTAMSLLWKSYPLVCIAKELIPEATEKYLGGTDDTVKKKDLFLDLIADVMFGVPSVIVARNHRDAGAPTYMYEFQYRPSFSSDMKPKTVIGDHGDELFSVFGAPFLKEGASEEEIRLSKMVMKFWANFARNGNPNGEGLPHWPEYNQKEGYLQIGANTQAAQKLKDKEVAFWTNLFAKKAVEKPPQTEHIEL
Procedure: In this study, a known bioluminogenic probe substrate NLMe was used for human carboxylesterase 1 (hCES1A) inhibition assays. ([Wang et al., 2020]). In brief, the incubation mixture (0.1 mL) consisted of 0.1 M buffer PBS (PH 6.5), hCES1A (0.1 μg/mL, final concentration) and each test compound. […] After 20 min incubation, equal volume of LDR was added to stop reaction. The luminescence signals were monitored in the microplate reader (SpectraMax iD3Molecular Devices, Austria). […]
(§1) The household library of covalent fragments including D and F was from Organic Chemistry […]
(§2) Fig. S1. Partial fragment molecules of a household library targeting to serine. […]
Inhibition assay on hCES1A
In this study, a known bioluminogenic probe substrate NLMe was used for human carboxylesterase 1 (hCES1A) inhibition assays. 2 In brief, the incubation mixture (0.1 mL) consisted of 0.1 M buffer PBS (PH 6.5), hCES1A (0.1 μg/mL, final concentration) and each test compound. […]
After 20 min incubation, equal volume of LDR was added to stop reaction.

hCES2A = molecular target: T2, hCES2A (Homo sapiens, UniProt O00748); experiment: Inhibition assay on hCES2A (fluorescent substrate FD); type: biochemical; conditions: mean ± SD, n = 3
T2 sequence (O00748 27-559): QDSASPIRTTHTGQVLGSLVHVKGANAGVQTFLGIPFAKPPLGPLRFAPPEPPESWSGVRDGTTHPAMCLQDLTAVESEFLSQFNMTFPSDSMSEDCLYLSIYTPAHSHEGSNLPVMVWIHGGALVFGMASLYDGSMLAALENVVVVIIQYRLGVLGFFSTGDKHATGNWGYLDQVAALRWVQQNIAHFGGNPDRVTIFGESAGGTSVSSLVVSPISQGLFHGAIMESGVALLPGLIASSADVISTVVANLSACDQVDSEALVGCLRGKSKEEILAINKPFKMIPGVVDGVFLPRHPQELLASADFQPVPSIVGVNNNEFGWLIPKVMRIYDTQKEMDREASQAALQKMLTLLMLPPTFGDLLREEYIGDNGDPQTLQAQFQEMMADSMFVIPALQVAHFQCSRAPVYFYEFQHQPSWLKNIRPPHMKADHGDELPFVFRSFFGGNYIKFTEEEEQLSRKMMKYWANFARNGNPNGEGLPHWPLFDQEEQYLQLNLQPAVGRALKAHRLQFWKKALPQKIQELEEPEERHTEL
Procedure: 1. Detailed experimental, materials, and methods
as §1, §2
Inhibition assay on hCES2A
Human carboxylesterase 2 (hCES2A) inhibition assays were conducted using FD, a known fluorescent substrate. 3 Briefly, hCES2A (0.4 μg/mL, final concentration) was preincubated with analytes/DMSO (as a control group) in PBS (pH 7.4) at 37 °C for 3 min. This was followed by adding the substrate FD (4 μM, final concentration) in the incubation mixture and allowing it to react for 30 min. The fluorescent signals (excitation/emission, 480 nm/525 nm) were continuously recorded by a microplate reader (SpectraMax iD3Molecular Devices, Austria). […]

hCES1A [2] = molecular target: T1, hCES1A; experiment: Co-crystallography with hCES1A; type: binding; conditions: 1:5 molar ratio
Procedure: Purified hCES1A incubated with F-3 and F-4 at 1:5 M ratio for 1 h at 18°C. Crystallisation screening was performed using commercially available kit sets using sitting drop vapor diffusion at 16°C. Both diffraction-quality crystals were obtained from the condition containing 14.4% peg8000 (w/v), 0.1M MES 6.4, 0.3M CaAc and 20% glycerol. Crystals were flash cooled in liquid nitrogen after cryoprotection in 25% glycerin. Date was collected on 02U1 at Shanghai Synchrotron Radiation Facility (SSRF). Data images were processed using program HKL2000. ([Otwinowski and Minor, 1997]). Crystal structures were solved using molecular replacement with the Phenix software suite using unbound hces1a (Protein Data Bank [PDB] accession number 1MX1 as the search model. Structure refinement was performed using Phenix. ([Adams et al., 2010]). The program COOT was used for manual rebuilding. ([Emsley and Cowtan, 2004]). Molecular graphics images were generated using CCP4MG. ([McNicholas et al., 2011]). […]
fluorogenic probe. 4 Briefly, the incubation mixtures (0.1 mL) contained Tris-HCl buffer, hPL solution (0.25 μg/mL, final concentration), porcine bile salt (0.1 mg/mL, final concentration) and each inhibitor (with different concentrations). […] The fluorescent signals of hydrolytic product were quantified by using the microplate reader (Spectra Max M4, Austria), with the wavelength of 600 nm and 660 nm for excitation and emission, respectively. […]
OPTS, a known fluorogenic probe, was used as the substrate to assess the residual activities of Notum in the presence of each tested compound. […] After preincubated at 37 °C for 1 min, OPTS was added to initiate the hydrolytic reaction and the multi-mode microplate reader (SpectraMax iD3, Molecular Devices, Austria) was used to analyze the florescence signals of the […]
The F-3, F-4, F-10-bound peptides was analysed using the nanoLC-MS/MS system, respectively.6 The purified hCES1A (150 μg, final content) was co-incubated with the small molecule inhibitor F-3/ F-4/ F-10 (100 μM, final concentration) at 4 °C and 25 °C, respectively, for 4h. […]

[3] = 3 min incubation, read-out: hCES1A IC50 3 min
[4] = 33 min incubation, read-out: hCES1A IC50 33 min
[5] = 3 min incubation, read-out: hCES2A IC50 3 min
[6] = 33 min incubation, read-out: hCES2A IC50 33 min

| Structure (SMILES) | IC50 (hCES1A [1]; [3]) [nM] | IC50 (hCES1A [1]; [4]) [nM] | hCES1A IC50 Fold Increase (hCES1A [1]) | IC50 (hCES2A; [5]) [nM] | IC50 (hCES2A; [6]) [nM] | covalent binding mode at the catalytic triad (Ser221) in co-crystal (hCES1A [2]) |
| --- | --- | --- | --- | --- | --- | --- |
| O=C(c1ccc(Cl)cc1)C(F)(F)F [Compound F-1] | 14.4 ± 1.9 | 1.9 ± 0.2 | 7.6 | 59.1 ± 9.8 | 71.3 ± 19.4 |  |
| O=C(CF)c1ccc(Cl)cc1 [Compound F1-2] | 1210 | 874 ± 92.2 | 1.4 |  |  |  |
| Nc1ccc(C(=O)C(F)(F)F)cc1 [Compound F-12] | 470 ± 120 | 670 ± 130 |  |  |  |  |
| O=C(c1ccc(Br)cc1)C(F)(F)F [Compound F-7] | 16.1 ± 2.3 | 2.1 ± 0.6 | 7.7 |  |  |  |
| O=C(c1ccc(Cl)cc1)C(F)F [Compound F1-1] | 58 ± 6 | 102 ± 37.4 | 0.6 |  |  |  |
| O=C(c1ccc(I)cc1)C(F)(F)F [Compound F-9] | 37.7 ± 8.6 | 6.2 ± 1.1 | 6.1 |  |  |  |
| O=C(c1ccc(F)cc1)C(F)(F)F [Compound F-8] | 1700 | 603 ± 107 | 2.8 |  |  |  |
| O=C(c1ccccc1Br)C(F)(F)F [Compound F-6] | 9.9 ± 1.01 | 52.8 ± 15.9 | 0.2 |  |  |  |
| CCc1ccc(C(=O)C(F)(F)F)cc1 [Compound F-15] | 18.7 ± 4.2 | 23.8 ± 12.4 |  |  |  |  |
| O=C(c1ccc(C(F)(F)F)cc1)C(F)(F)F [Compound F-11] | > 2000 | > 2000 |  |  |  |  |
| O=C(c1ccc(Cl)c(Cl)c1)C(F)(F)F [Compound F-4] | 10 ± 1.4 | 2.4 ± 0.4 | 4.2 |  |  | forming an expected hemiacetal covalent bond |
| COc1ccc(C(=O)C(F)(F)F)cc1 [Compound F-14] | 30.2 ± 12.1 | 29.7 ± 20.7 |  |  |  |  |
| O=C(c1ccccc1Cl)C(F)(F)F [Compound F-3] | 11.6 ± 0.7 | 2.3 ± 0.4 | 5.0 | 102 ± 20.6 | 85.6 ± 36 | promising covalent binding modes |
| O=C(c1cccc(Cl)c1)C(F)(F)F [Compound F-2] | 34.1 ± 5.3 | 2.5 ± 0.4 | 13.6 | 76.8 ± 10.9 | 90 ± 21 |  |
| O=C(c1cccc(Br)c1)C(F)(F)F [Compound F-5] | 17 ± 3 | 1.7 ± 0.5 | 10.0 |  |  |  |
| O=C(c1cc(Cl)c(Cl)c(Cl)c1)C(F)(F)F [Compound F-10] | 30 ± 4.5 | 2.8 ± 0.4 | 10.7 |  |  |  |
